Source: patent US11161845B2, “Pyrrolopyridine-aniline compounds for treatment of dermal disorders” (Nflection Therapeutics, Inc., priority 2017, dated 2021)
Values belong to the molecule of their own block, whether it stands above or below them.

Legend:
[1] = S9 stability assay, human liver S9 fraction; type: in vitro ADME; settings: for CLint: known MEK compounds; for microsomal CLint at 1 μM / half-life at 1 μM: pH 7.4, Table 1, human liver S9 fraction; for microsomal CLint at 1 μM: read-out: CLint; for half-life at 1 μM: read-out: Liver S9 t1/2
Description: Compounds were assessed for metabolic stability in human skin by assessing their rate of disappearance from human S9 skin fraction. Similarly, compounds were assessed for metabolic stability in human liver by assessing their rate of disappearance from human S9 liver fraction. The protocol below can be used to assess the difference between skin and hepatic metabolism.
The assay was carried out in 96-well microtiter plates at 37° C. Reaction mixtures (25 μL) contained a final concentration of 1 μM test compound, 2 mg/mL liver or skin S9 protein, and 1 mM NADPH in buffer (100 mM potassium phosphate, pH 7.4 buffer with 1 mM EDTA, 3 mM MgCl2). At each of the time points (0, 15, 30, and 60 minutes), 150 μL of quench solution (100% acetonitrile with 0.1% formic acid) with internal standard was transferred to each well. Besides the zero minute controls, mixtures containing the same components except the NADPH were also prepared as the negative control. Verapamil or testosterone was included as a positive control to verify assay performance. Plates were sealed and centrifuged at 4° C. for 15 minutes at 4000 rpm. The supernatant was transferred to fresh plates for LC/MS/MS analysis.
All samples were analyzed on LC/MS/MS using an AB Sciex API 4000 instrument, coupled to a Shimadzu LC-20AD LC Pump system. Analytical samples were separated using a Waters Atlantis T3 dC18 reverse phase HPLC column (20 mm×2.1 mm) at a flow rate of 0.5 mL/min. The mobile phase consisted of 0.1% formic acid in water (solvent A) and 0.1% formic acid in 100% acetonitrile (solvent B).
The extent of metabolism was calculated as the disappearance of the test compound, compared to the 0-min control reaction incubations. Initial rates were calculated for the compound concentration and used to determine t1/2 values and subsequently, the intrinsic clearance, CLint=(0.693) (1/t1/2 (min)) (mL incubation/mg of S9 protein).

[2] = Plasma LCMS compound levels, in vivo mouse model; set-up: species or system mice; settings: for concentration at 1 h: male, C57BL/6J, mouse, plasma; for Plasma LCMS Compound Levels: pre-dose (16 h)
Description: These mice were also shaved weekly.
(§1) Week 4 (Experiment end): Skin and blood were collected right before the last morning dose (N=3), 1 hour (N=3 mice), and 2 hours (N=3 mice) after final application; Blood draw: Plasma compound levels (LCMS); Skin biopsy: formalin fixed for histology and p-ERK staining, flash frozen for Western analysis and skin compound levels (LCMS)
(§2) Compound level analysis: Liquid chromatography with mass spectrometry method (LCMS) was used to detect compound levels in the skin and plasma. Tissues were preprocessed prior to LCMS as follows. Tissues were minced and incubated with collagenase and then finally homogenized using the stainless steel beads prior to LCMS analysis. Calibration curves and a QC test were run with each assay.

C57BL/6J mice = experiment: In vivo mouse model, skin and systemic toxicity of topical application (survival)
Description: This study was designed to assess the skin toxicity and gross systemic toxicity of twice daily topical administration of a compound disclosed herein, as well as to evaluate the effect of metabolic lability on systemic toxicity.
Study Objective: The primary objective of this study was to characterize the skin and systemic toxicity of twice daily topical application of a compound disclosed herein, applied for 25 days in mice. Secondary objectives included determination of the 25-day skin and plasma compound levels of formulations containing three dosages of compound of Ex. 2 after application to 10% body surface area (BSA) murine skin; assessment of gross systemic toxicity from the application of compound of Ex. 2 after twice daily application to 10% BSA murine skin for 25 days; and determination of the correlation of skin and plasma compound levels with associated toxicity.
Mice: 8 week old male C57BL/6J mice (Jackson Laboratories) were shaved prior to start of study and weekly.
Compound application: Compounds were dissolved in a 50% DMSO/50% propyelene glycol vehicle. 0.125 mL of the following compounds were applied to the shaved dorsal back of mice (10% BSA) twice daily for 5 days per week for a total of 24 days. The second dose was applied 8 hours after first morning dose. All mice were shaved once per week at application site.
Oral trametinib was dissolved in 0.5% hydroxypropyl methylcellulose (Sigma-Aldrich) and 0.2% Tween-80 (Sigma-Aldrich) and administered by oral gavage (0.2 mL bolus or 10 mg/kg) once daily 5 days per week. These mice were also shaved weekly.
Weekly (Weeks 0-4): body weight measurements weekly, starting week 0 until experiment end; photographs of dorsal back and face of each mouse weekly, starting week 0 until experiment end; skin; and gross stool analysis assessed weekly for heme color, starting week 0 until experiment end.
The study planned for the mice to be sacrificed at Day 25.
Kaplan Meier curves were analyzed to determine progression to skin toxicity for each arm as compared with vehicle. T-test were used to compare compound levels at each dosage. Ki-67+ cells and p-ERK expression were also assessed on a cellular level via immunostaining. Western blots informed semi-quantitative changes in p-ERK expression.

[3] = Compound levels in neck/back skin (LCMS), in vivo mouse model; set-up: species or system mice; settings: topical 1% trametinib
Description: as §1
Skin biopsy and GI tract sampling: Skin was wiped down with 100% ethanol and a 1 cm^2 biopsy was obtained from compound application site each mouse at the 25 day end of experiment (except as noted below). The skin was biopsied prior to final dose from 3 mice, 1 hour after last compound application from 3 mice, 2 hours after last compound application from 3 mice. Half of the specimen were immediately flash frozen for LCMS analysis and Western Blot Analysis. Half of the specimen was fixed for 24 hours in 10% formalin and then transferred to ethanol for immunohistochemistry. Gastrointestinal tract was also formalin fixed overnight then transferred to 70% ETOH for storage.
as §2

MDCK-MDR1 cells = experiment: MDCK-MDR1 bi-directional transport assay; settings: 5 μM
Description: (§3) MDCK-MDR1 is a stable-transfected cell line originating from MDCK cells, with over-expression of human MDR1 gene. The cell line is widely used for the identification and characterization of P-gp substrates and inhibitors.
(§4) MDCK-MDR1 cells were plated into 96-well Millipore Millicell-96 plates at 7,500 cells/75 μL/well and incubated for three days at 37° C. with 5% CO2. Cells were washed with Hank's Balanced Salt Solution (HBSS) with 5 mM HEPES for 30 minutes before starting the experiment. Test compound solutions were prepared by diluting DMSO stock into HBSS buffer, resulting in a final DMSO concentration of 0.1%. Prior to the experiment, cell monolayer integrity was verified by […] electrical resistance (TEER). Transport experiment was initiated by adding test compounds to the apical (75 μL) or basal (250 μL) side. Transport plates were incubated at 37° C. in a humidified incubator with 5% CO2. Samples were taken from the donor and acceptor compartments after one hour and analyzed by liquid chromatography with tandem mass spectrometry (LC/MS/MS).
(§5) Digoxin was used as reference control.
(§6) Apparent permeability (Papp) values were calculated using the following equation: Papp=(dQ/dt)/A/Co; where dQ/dt is the initial rate of amount of test compound transported across cell monolayer, A is the surface area of the filter membrane, and Co is the initial concentration of the test compound, calculated for each direction using a 4-point calibration curve by LC/MS/MS.
(§7) Net flux ratio between the two directional transports was calculated by the following equation: Ratio=Papp, B-A/Papp, A-B; where Papp, B-A and Papp, A-B represent the apparent permeability of test compound from the basal-to-apical and apical-to-basal side of the cellular monolayer, respectively.
(§8) Recovery was calculated based on the compound concentration at the end of the experiment, compared to that at the beginning of the experiment, adjusted for volumes.
(§9) A net flux ratio greater than two was considered a positive result for substrate determination. […] If the addition of a known P-gp inhibitor to the experiment reduces the net flux ratio by a significant amount (more than 50% reduction or reduces the ratio to close to unity), it is likely that the compound tested is a P-gp substrate.

P-gp (human MDR1) = experiment: MDCK-MDR1 bi-directional transport assay; settings: dog; for Papp A→B at 1 h, 5 μM / Papp B→A at 1 h, 5 μM: MDCK-MDR1, Papp
Description: as §3, §4, §5, §6, §7, §8, §9

MEK1 = target: T1, MEK1 (Homo sapiens, UniProt Q02750); experiment: MEK inhibition assay, Biological Example 1a (33P-ATP, P81 filter-binding); settings: read-out: Assay 1: biochemical MEK IC50
T1 construct: N-terminal His-tagged recombinant human full length protein; His (N); purchased Invitrogen PV3303; host or cells: insect cells
T1 sequence (Q02750 whole entry): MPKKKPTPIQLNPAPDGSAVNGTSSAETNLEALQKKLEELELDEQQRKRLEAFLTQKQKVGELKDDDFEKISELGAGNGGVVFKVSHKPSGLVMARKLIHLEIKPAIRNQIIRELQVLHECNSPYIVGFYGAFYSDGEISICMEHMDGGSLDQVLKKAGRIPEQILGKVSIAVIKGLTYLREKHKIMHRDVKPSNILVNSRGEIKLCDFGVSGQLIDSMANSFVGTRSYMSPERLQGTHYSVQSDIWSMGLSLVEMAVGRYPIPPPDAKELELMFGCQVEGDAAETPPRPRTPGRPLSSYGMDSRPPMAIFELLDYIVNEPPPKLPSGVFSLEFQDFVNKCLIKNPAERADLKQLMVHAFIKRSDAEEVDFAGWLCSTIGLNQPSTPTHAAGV
Description: MEK1 inhibitory activity of compounds were tested using the following procedure. […] Activated in vitro by RAF1. MW=49.2 kDa, GenBank Accession No. NP_002746. • Substrate: 5 μM ERK2 (K52R), • Kinase-dead mutant, (GenBank Accession No. NM_0011949), aa2-358 with N-terminal His6 tag, MW=43.63 kDa, expressed in E. coli.
The substrate was prepared in freshly prepared Reaction Buffer. The kinase was delivered into the substrate solution and gently mixed. Test compounds were delivered in 100% DMSO into the kinase reaction mixture by Acoustic technology (Echo550; nanoliter range), and incubated for 20 min at room temperature. ^33P-ATP was delivered into the reaction mixture to initiate the reaction. The reaction mixture was incubated for 2 hours at room temperature. Kinase activity was detected by P81 filter-binding method.

CLint [1]: 1.29 μL/min/mg protein
microsomal CLint at 1 μM [1]: 1.29 µL/min/mg
half-life at 1 μM [1]: 4.47 h
SMILES: O=C(NC[C@@H](O)CO)c1ccncc1Nc1ccc(I)cc1F [Example C7]

SMILES: CC(=O)Nc1cccc(-n2c(=O)n(C3CC3)c(=O)c3c(Nc4ccc(I)cc4F)n(C)c(=O)c(C)c32)c1 [Example C6]
CLint [1]: 0.86 μL/min/mg protein
microsomal CLint at 1 μM [1]: 0.86 µL/min/mg
half-life at 1 μM [1]: 6.7 h

SMILES: CC(=O)Nc1cccc(-n2c(=O)n(C3CC3)c(=O)c3c(Nc4ccc(I)cc4F)n(C)c(=O)c(C)c32)c1 [trametinib, reference compound]
concentration at 1 h ([2]; 10 mg/kg, oral trametinib): 0.0751 µg/mL
concentration at 1 h ([2]; topical 1% trametinib): 2.81 µg/mL
Plasma LCMS Compound Levels ([2]; oral trametinib): 39.93 ng/mL
Plasma LCMS Compound Levels ([2]; topical 1% trametinib): 1339.33 ng/mL
Survival Rates (C57BL/6J mice; oral trametinib 0.75 mg/kg daily gavage 5x/week, Day 0): 100%
Survival Rates (C57BL/6J mice; oral trametinib 0.75 mg/kg daily gavage 5x/week, Day 3): 90%
Survival Rates (C57BL/6J mice; oral trametinib 0.75 mg/kg daily gavage 5x/week, Day 6): 70%
Survival Rates (C57BL/6J mice; oral trametinib 0.75 mg/kg daily gavage 5x/week, Day 9): 70%
Survival Rates (C57BL/6J mice; oral trametinib 0.75 mg/kg daily gavage 5x/week, Day 12): 70%
Survival Rates (C57BL/6J mice; oral trametinib 0.75 mg/kg daily gavage 5x/week, Day 15): 70%
Survival Rates (C57BL/6J mice; oral trametinib 0.75 mg/kg daily gavage 5x/week, Day 18): 70%
Survival Rates (C57BL/6J mice; oral trametinib 0.75 mg/kg daily gavage 5x/week, Day 21): 70%
Survival Rates (C57BL/6J mice; oral trametinib 0.75 mg/kg daily gavage 5x/week, Day 24): 70%
Survival Rates (C57BL/6J mice; oral trametinib 0.75 mg/kg daily gavage 5x/week, Day 25): 70%
Survival Rates (C57BL/6J mice; topical Trametinib 1%, twice daily 5 days per week, 10% BSA, Day 0): 100%
Survival Rates (C57BL/6J mice; topical Trametinib 1%, twice daily 5 days per week, 10% BSA, Day 3): 100%
Survival Rates (C57BL/6J mice; topical Trametinib 1%, twice daily 5 days per week, 10% BSA, Day 6): 100%
Survival Rates (C57BL/6J mice; topical Trametinib 1%, twice daily 5 days per week, 10% BSA, Day 9): 100%
Survival Rates (C57BL/6J mice; topical Trametinib 1%, twice daily 5 days per week, 10% BSA, Day 12): 100%
Survival Rates (C57BL/6J mice; topical Trametinib 1%, twice daily 5 days per week, 10% BSA, Day 15): 80%
Survival Rates (C57BL/6J mice; topical Trametinib 1%, twice daily 5 days per week, 10% BSA, Day 18): 0%
Survival Rates (C57BL/6J mice; topical Trametinib 1%, twice daily 5 days per week, 10% BSA, Day 21): 0%
Survival Rates (C57BL/6J mice; topical Trametinib 1%, twice daily 5 days per week, 10% BSA, Day 24): 0%
Survival Rates (C57BL/6J mice; topical Trametinib 1%, twice daily 5 days per week, 10% BSA, Day 25): 0%
mortality / weight loss (C57BL/6J mice; topically-applied 1%, Day 18): found dead, or had to be sacrificed due to unacceptable weight loss
Compound Levels in Neck/Back Skin ([3]; 1 h): 3626.06 µg/mL
Compound Levels in Neck/Back Skin ([3]; pre-dose (16 h)): 4520.39 µg/mL

SMILES: O=C(NOC[C@H](O)CO)c1ccc(F)c(F)c1Nc1ccc(I)cc1F [Example C2]
CLint [1]: 1.02 μL/min/mg protein
microsomal CLint at 1 μM [1]: 1.02 µL/min/mg
half-life at 1 μM [1]: 5.67 h

Recover Rate (MDCK-MDR1 cells): 96%
Papp, A-B Value (MDCK-MDR1 cells; single values): 1.6 ×10⁻⁶ cm/s
Papp, B-A Value (MDCK-MDR1 cells; single values): 14.1 ×10⁻⁶ cm/s
efflux ratio at 1 h, 5 μM (P-gp (human MDR1); MDCK-MDR1): 9.7
Papp A→B at 1 h, 5 μM (P-gp (human MDR1); A-B Mean): 1.5 ×10⁻⁶ cm/s
Papp A→B at 1 h, 5 μM (P-gp (human MDR1); A-B Value, single values): 1.3 ×10⁻⁶ cm/s
Papp B→A at 1 h, 5 μM (P-gp (human MDR1); B-A Mean): 14.3 ×10⁻⁶ cm/s
Papp B→A at 1 h, 5 μM (P-gp (human MDR1); B-A Value, single values): 14.6 ×10⁻⁶ cm/s
SMILES: C[C@H]1O[C@@H](O[C@H]2[C@@H](O)C[C@H](O[C@H]3[C@@H](O)C[C@H](O[C@H]4CC[C@@]5(C)[C@H](CC[C@@H]6[C@@H]5C[C@@H](O)[C@]5(C)[C@@H](C7=CC(=O)OC7)CC[C@]65O)C4)O[C@@H]3C)O[C@@H]2C)C[C@H](O)[C@@H]1O [Digoxin]

IC50 (MEK1): 2.45 µM
SMILES: C#Cc1ccc(Nc2c(C(=O)NOCCO)c3cccnc3n2C)c(F)c1 [Example 3, 2-((4-Ethynyl-2-fluorophenyl)amino)—N-(2-hydroxyethoxy)-1-methyl-1H-pyrrolo[2,3-b]pyridine-3-carboxamide]

CLint [1]: 1.25 μL/min/mg protein
microsomal CLint at 1 μM [1]: 1.25 µL/min/mg
half-life at 1 μM [1]: 4.62 h
SMILES: Cn1cnc2c(F)c(Nc3ccc(Br)cc3F)c(C(=O)NOCCO)cc21 [Example C3]

CLint [1]: 10.37 μL/min/mg protein
microsomal CLint at 1 μM [1]: 10.4 µL/min/mg
half-life at 1 μM [1]: 0.55 h
SMILES: O=C(NOCC1CC1)c1ccc(F)c(F)c1Nc1ccc(I)cc1Cl [Example C1]

CLint [1]: 2.50 μL/min/mg protein
microsomal CLint at 1 μM [1]: 2.5 µL/min/mg
half-life at 1 μM [1]: 2.3 h
SMILES: Cn1cnc2c(F)c(Nc3ccc(Br)cc3Cl)c(C(=O)NOCCO)cc21 [Example C4]

CLint [1]: 6.98 μL/min/mg protein
microsomal CLint at 1 μM [1]: 6.98 µL/min/mg
half-life at 1 μM [1]: 0.833 h
SMILES: O=C(NOCCO)c1ccc2cncn2c1Nc1ccc(I)cc1F [Example C5]
